Source: ChEMBL document CHEMBL5053536, “Discovery of Quinazoline-2,4(1H,3H)-dione Derivatives Containing 3-Substituted Piperizines as Potent PARP-1/2 Inhibitors─Design, Synthesis, In Vivo Antitumor Activity, and X-ray Crystal Structure Analysis” (J Med Chem, 2021)

Assay: MRT(0 to infinity) in Beagle dog at 20 mg/kg, po measured upto 24 hrs by LC-MS/MS analysis
Assay type: ADME, organism-based, Canis lupus familiaris
Conditions: in vivo

## CC[C@@H]1CN(C(=O)c2cc(Cn3c(=O)[nH]c(=O)c4ccccc43)ccc2F)CCN1CC
  MRT inf: 4.85 h
